This is an account of results in ChEMBL document CHEMBL1148116, “Thorectandrols C, D, and E, new sesterterpenes from the marine sponge Thorectandra sp” (J Nat Prod, 2002).

Assay type in all cases: functional, cell-based
Test [1] relates to MCF7. The test is described as follows: Cytotoxicity against human MCF7 cells at 100 ug/mL.
Test [2] concerns SNB-19. The test is described as follows: Cytotoxicity against human SNB19 cells at 100 ug/mL.
Test [3] relates to COLO 205. Put plainly: Cytotoxicity against human COLO205 cells at 100 ug/mL.
In test [4] the test system is KM12. Put plainly: Cytotoxicity against human KM12 cells at 100 ug/mL.
For test [5], the system named is MOLT-4. Put plainly: Cytotoxicity against human MOLT4 cells at 100 ug/mL.
Test [6] deals with NCI-H460. Put plainly: Cytotoxicity against human H460 cells at 100 ug/mL.
Test [7] has as its system A549. Put plainly: Cytotoxicity against human A549 cells at 100 ug/mL.
Test [8] relates to LOX IMVI. Put plainly: Cytotoxicity against human LOXIMVI cells at 100 ug/mL.
Test [9] relates to Malme-3M. The test is described as follows: Cytotoxicity against human MALME-3M cells at 100 ug/mL.
The test system of test [10] is OVCAR-3. The test is described as follows: Cytotoxicity against human OVCAR-3 cells at 100 ug/mL.
Test [11] concerns IGROV-1. Put plainly: Cytotoxicity against human IGROV1 cells at 100 ug/mL.
The subject of another test is 786-0. The test is described as follows: Cytotoxicity against human 786-O cells at 100 ug/mL.
The test system of test [12] is SNB-19. Put plainly: Cytotoxicity against human SNB19 cells.
Test [13] has as its system COLO 205. Put plainly: Cytotoxicity against human COLO205 cells.
Test [14] concerns KM12. The test is described as follows: Cytotoxicity against human KM12 cells.
Test [15] relates to MOLT-4. Put plainly: Cytotoxicity against human MOLT4 cells.
In test [16] the test system is NCI-H460. The test is described as follows: Cytotoxicity against human H460 cells.
Test [17] deals with A549. Put plainly: Cytotoxicity against human A549 cells.
Test [18] deals with LOX IMVI. The test is described as follows: Cytotoxicity against human LOXIMVI cells.
The subject of test [19] is Malme-3M. The test is described as follows: Cytotoxicity against human MALME-3M cells.
Test [20] has as its system OVCAR-3. The test is described as follows: Cytotoxicity against human OVCAR-3 cells.
The subject of test [21] is IGROV-1. Put plainly: Cytotoxicity against human IGROV1 cells.
Test [22] can be described thus: Cytotoxicity against human 786-O cells. The conditions noted are these: 786-0.
Test [23] relates to MCF7. Put plainly: Cytotoxicity against human MCF7 cells.
[24] abbreviates: Homo sapiens, MCF7, read-out: IC50.

SMILES strings stand for the structures. In brackets after ≈: the same amount, converted by molar mass. Activity calls are given as the source filed them. The rule behind the calls is not given here.

`C=C1CCC[C@H]2[C@](C)(CC/C(C)=C/C[C@@H](O)C3=CC(=O)OC3)[C@@H](C)[C@H](O)C[C@]12C`: the result in the test with MCF7 [1], in the test with SNB-19 [2], in the test on COLO 205 [3], in the test on KM12 [4], in the test with MOLT-4 [5] and in the test on NCI-H460 [6] was inactive. Moreover, the outcome in the test with A549 [7], with LOX IMVI [8], in the test on Malme-3M [9], in the test with OVCAR-3 [10], with IGROV-1 [11] and with 786-0 was inactive.
Turning to `CC(C)=CC1C/C(=C/CC/C(C)=C/CC/C(C)=C/C[C@@H](O)C2=CC(=O)OC2)C(=O)O1` (stereo not given in full), the outcome in the test on MCF7 [1], in the test with SNB-19 [2], with COLO 205 [3], in the test with KM12 [4], with MOLT-4 [5] and in the test with NCI-H460 [6] was inactive. The outcome in the test with A549 [7], in the test with LOX IMVI [8], in the test on Malme-3M [9], in the test on OVCAR-3 [10], with IGROV-1 [11] and in the test on 786-0 was inactive.
Take `CC(C)=CC1C/C(=C\CC/C(C)=C/CC/C(C)=C/CCC2=CC(=O)OC2)C(=O)O1` (stereo not given): the result in the test with MCF7 [1], in the test on SNB-19 [2], in the test on COLO 205 [3], in the test on KM12 [4], in the test on MOLT-4 [5] and with NCI-H460 [6] was inactive. Further, the outcome in the test with A549 [7], in the test with LOX IMVI [8], in the test with Malme-3M [9], in the test on OVCAR-3 [10], in the test on IGROV-1 [11] and in the test on 786-0 was inactive.
`C=C1CCC[C@H]2[C@](C)(CC/C(C)=C/C=C/C3=CC(=O)OC3O)[C@@H](C)CC[C@]12C` (stereo not given in full) [PALAUOLIDE]: the IC50 with SNB-19 [12] came out at 52.1 µg/mL (≈ 135 µM); in the test on COLO 205 [13], 23.6 µg/mL (≈ 61.4 µM); in the test on KM12 [14] it was 14.4 µg/mL (≈ 37.4 µM); in the test with MOLT-4 [15] it was 43.5 µg/mL (≈ 113 µM); in the test with NCI-H460 [16] it was 10.1 µg/mL (≈ 26.3 µM); in the test on A549 [17], 30 µg/mL (≈ 78 µM). The IC50 with LOX IMVI [18] was 51.2 µg/mL (≈ 133 µM); with Malme-3M [19], 37 µg/mL (≈ 96.2 µM); in the test with OVCAR-3 [20] it was 30 µg/mL (≈ 78 µM); with IGROV-1 [21] it was 7.7 µg/mL (≈ 20 µM); in [22] it was 53 µg/mL (≈ 138 µM); in the test on MCF7 [23] (setting [24]), over 100 µg/mL.
With `C=C1CCC[C@@H]2[C@@](C)(CC/C(C)=C/C[C@@H](O)C3=CC(=O)OC3O)[C@@H](C)CC[C@@]12C` (stereo not given in full) [PALAUOLOL], the IC50 is 2.1 µg/mL (≈ 5.22 µM) in the test with SNB-19 [12]; 1.1 µg/mL (≈ 2.73 µM) in the test with COLO 205 [13]; 1.8 µg/mL (≈ 4.47 µM) in the test with KM12 [14]; 0.6 µg/mL (≈ 1.49 µM) in the test on MOLT-4 [15]; 1.3 µg/mL (≈ 3.23 µM) in the test with NCI-H460 [16]; over 100 µg/mL in the test with A549 [17]. In addition, the IC50 in the test on LOX IMVI [18] amounted to 2.4 µg/mL (≈ 5.96 µM); in the test on Malme-3M [19], 0.5 µg/mL (≈ 1.24 µM); with OVCAR-3 [20], 2.2 µg/mL (≈ 5.46 µM); in the test on IGROV-1 [21], 1.5 µg/mL (≈ 3.73 µM); in [22], 1.4 µg/mL (≈ 3.48 µM); in the test on MCF7 [23] (setting [24]) it was 7 µg/mL (≈ 17.4 µM).
Regarding `C=C1CCC[C@H]2[C@](C)(CC/C(C)=C/C[C@H]3OC(=O)C=C3CO)[C@@H](C)CC[C@]12C` [THORECTANDROL A], the IC50 in the test on SNB-19 [12] was found to be 40 µg/mL (≈ 103 µM); in the test with COLO 205 [13], 37 µg/mL (≈ 95.7 µM); in the test on KM12 [14], 40 µg/mL (≈ 103 µM); in the test on MOLT-4 [15] it was 32 µg/mL (≈ 82.8 µM); in the test on NCI-H460 [16], 35 µg/mL (≈ 90.5 µM); in the test with A549 [17], 35 µg/mL (≈ 90.5 µM). For the same compound, the IC50 in the test with LOX IMVI [18] amounted to 35 µg/mL (≈ 90.5 µM); in the test on Malme-3M [19] it was 40 µg/mL (≈ 103 µM); with OVCAR-3 [20], 35 µg/mL (≈ 90.5 µM); in the test on IGROV-1 [21], 31 µg/mL (≈ 80.2 µM); in [22], 30 µg/mL (≈ 77.6 µM); with MCF7 [23] (setting [24]), 40 µg/mL (≈ 103 µM).
`C=C1CCC[C@H]2[C@@](CC/C(C)=C/C[C@H]3OC(=O)CC3CO)(COC(C)=O)[C@@H](C)CC[C@]12C` (stereo not given in full) [THORECTANDROL B]: the IC50 turned out to be 35 µg/mL (≈ 78.4 µM) in the test with SNB-19 [12]; 23.6 µg/mL (≈ 52.8 µM) in the test on COLO 205 [13]; 94 µg/mL (≈ 210 µM) in the test on KM12 [14]; 19 µg/mL (≈ 42.5 µM) in the test with MOLT-4 [15]; 96 µg/mL (≈ 215 µM) in the test on NCI-H460 [16]; 35 µg/mL (≈ 78.4 µM) with A549 [17]. Further, the IC50 in the test with LOX IMVI [18] is 100 µg/mL (≈ 224 µM); in the test on Malme-3M [19], 30 µg/mL (≈ 67.2 µM); in the test with OVCAR-3 [20], 70 µg/mL (≈ 157 µM); with IGROV-1 [21], over 100 µg/mL; in test [22], 35 µg/mL (≈ 78.4 µM); in the test on MCF7 [23] (setting [24]) it was 30 µg/mL (≈ 67.2 µM).
Regarding `C=C1CCC[C@H]2[C@](C)(CC/C(C)=C/C[C@@H](O)C3=CC(=O)OC3)[C@@H](C)[C@H](OC(C)=O)C[C@]12C` [THORECTANDROL C], the IC50 is 30 µg/mL (≈ 67.5 µM) with A549 [17], 30 µg/mL (≈ 67.5 µM) in the test on Malme-3M [19], 30 µg/mL (≈ 67.5 µM) in test [22] and “Not Active” in the test with MCF7 [23] (mcf7). The result in the test with LOX IMVI [18] and with OVCAR-3 [20] was inactive.
